Data from patent publication US20260250629A1, “STEM CELLS BASED THREE-DIMENSIONAL EMBRYO MODEL” (CAMBRIDGE ENTERPRISE LIMITED, priority 2023, published 2026).

Key:
Assay type in all cases: cell-based, human
hEOs [1] = test: Self-organization of hES cells into 3D hEOs, static 96-well culture
Description: Inventors used W15-NANOS3-tdTomato and RUES2-GLR hES cell lines in this study. All hES cells were cultured in Essential 8™ (E8) medium (Life Technologies, A1517001) on freshly prepared Vitronectin (Fisher Scientific, A31804) coated 6-well plates in humidified chambers at 37° C. and 5% CO2. hES cells were passaged every 3-4 days (once they reached ~70% confluency) using 0.5 mM EDTA (ThermoFisher Scientific, AM9260G) in homemade phosphate buffer saline (1×PBS). The transient state of cells was induced, as described previously, with slight modifications^19. In brief, hES cell colonies (70% confluent) were dissociated into single cells using 0.25% Trypsin-EDTA (Life Technologies, 25200072), seeded (600,000 cells/well) into freshly prepared Vitronectin-coated 6-well plates (~30 mins). The cells were cultured for 24 h in the presence of Advanced RPMI 1640 (Life Technologies, 61870-036) supplemented with B27 supplement (1%) (ThermoFisher Scientific, 17504044), 0.1 mM NEAA, 100 U/ml Penicillin, 0.1 mg/ml Streptomycin, 2 mM L-glutamine, Activin A (1 μg/ml) (In-house produced by Biochemistry Department, University of Cambridge), Chiron (3 μM) (CHIR99021, TOCRIS 4423/10) and Rho-associated, coiled-coil containing protein kinase (ROCK) inhibitor (Rocki: 10 μM); Y27632) (hereafter called induction medium, IM). […]

niSTEMBRYOs [2] = test: Contracting cardiomyocytes in niSTEMBRYOs
hPGCLCs = test: hPGCLC specification in hEOs, NANOS3-tdTomato reporter
Description: Inventors used W15-NANOS3-tdTomato and RUES2-GLR hES cell lines in this study. All hES cells were cultured in Essential 8™ (E8) medium (Life Technologies, A1517001) on freshly prepared Vitronectin (Fisher Scientific, A31804) coated 6-well plates in humidified chambers at 37° C. and 5% CO2. hES cells were passaged every 3-4 days (once they reached ~70% confluency) using 0.5 mM EDTA (ThermoFisher Scientific, AM9260G) in homemade phosphate buffer saline (1×PBS). The transient state of cells was induced, as described previously, with slight modifications^19. In brief, hES cell colonies (70% confluent) were dissociated into single cells using 0.25% Trypsin-EDTA (Life Technologies, 25200072), seeded (600,000 cells/well) into freshly prepared Vitronectin-coated 6-well plates (~30 mins). The cells were cultured for 24 h in the presence of Advanced RPMI 1640 (Life Technologies, 61870-036) supplemented with B27 supplement (1%) (ThermoFisher Scientific, 17504044), 0.1 mM NEAA, 100 U/ml Penicillin, 0.1 mg/ml Streptomycin, 2 mM L-glutamine, Activin A (1 μg/ml) (In-house produced by Biochemistry Department, University of Cambridge), Chiron (3 μM) (CHIR99021, TOCRIS 4423/10) and Rho-associated, coiled-coil containing protein kinase (ROCK) inhibitor (Rocki: 10 μM); Y27632) (hereafter called induction medium, IM).
Transient cells induced in IM for 24 h were dissociated into single cells using 0.25% Trypsin-EDTA and seeded (400 cells/well) into Corning Clear Ultra-low attachment 96-well plates (Fisher Scientific 10023683). […]
hEOs cultured on ultra-low attachment 96-well plates were collected, washed in 1×PBS and fixed in 4% PFA for 3-4 hours at room temperature or 1% PFA overnight at 4° C. hEOs were embedded in OCT mounting medium (VWR-361603E) and incubated in dry ice for 30 min before sectioning the frozen samples. An antigen retrieval procedure was performed to remove the fluorescence reporter from W15-NANOS3-tdTomato hES cell line, where required. […]

niSTEMBRYOs [3] = test: Red hemogenic zones in niSTEMBRYOs
hEOs [4] = test: Scaled static culture of hEOs in Aggrewell 400 plates
Description: (§1) 24 well Aggrewell™ 400 plates (StemCell Technologies 34411) were pre-treated with 500 μl/well anti-adherence medium and centrifuged at 1300×g for 5 mins. After aspirating the medium, the wells were rinsed with 2 ml warm basal medium. Then, the medium was replaced by 1 ml warm organisation medium (OM). The plate was incubated at 37° C. at 5% CO2 until the cells were ready for seeding. OM comprised of Essential 6 (E6) medium (Life Technologies, A1516401) supplemented with 0.25 μM CH and ROCKi (10 μM). Pre-induced cells were dissociated using 0.25% Trypsin-EDTA, and 480,000 cells were seeded into each well of an Aggrewell™ 400 Plate at the rate of 400 cells/microwell and were centrifuged at 300×g for 3 mins. The final volume of medium in each well was 2 ml. Cells were cultured in Aggrewell plates at 37° C. at 5% CO2 for 4 days. The OM (without ROCKi) was replaced every day. On day 5, hEOs were manually picked and transferred to bottles for rotary culture in a bioreactor. From Day 5, hEOs were cultured in OM supplemented with 1 μM SB431542 at hypoxic conditions (5% O2, 5% CO2 and without ROCKi). The hEOs were collected at different time points for further analysis.

niSTEMBRYOs [5] = test: Lineage marker expression and hindgut formation in niSTEMBRYOs
hEOs [6] = test: Frequency of hEOs with red inclusions (haematopoiesis)
Description: as §1, with “On day 5, hEOs were manually picked and transferred to bottles for rotary culture in a bioreactor. From Day 5, hEOs were cultured in OM supplemented with 1 μM SB431542 at hypoxic conditions (5% O2, 5% CO2 and without ROCKi).” left out

hEOs [7] = test: Frequency of beating hEOs (periodic contractions)
Description: 24 well Aggrewell™ 400 plates (StemCell Technologies 34411) were pre-treated with 500 μl/well anti-adherence medium and centrifuged at 1300×g for 5 mins. After aspirating the medium, the wells were rinsed with 2 ml warm basal medium. Then, the medium was replaced by 1 ml warm organisation medium (OM). The plate was incubated at 37° C. at 5% CO2 until the cells were ready for seeding. OM comprised of Essential 6 (E6) medium (Life Technologies, A1516401) supplemented with 0.25 μM CH and ROCKi (10 μM). Pre-induced cells were dissociated using 0.25% Trypsin-EDTA, and 480,000 cells were seeded into each well of an Aggrewell™ 400 Plate at the rate of 400 cells/microwell and were centrifuged at 300×g for 3 mins. The final volume of medium in each well was 2 ml. Cells were cultured in Aggrewell plates at 37° C. at 5% CO2 for 4 days. The OM (without ROCKi) was replaced every day. On day 5, hEOs were manually picked and transferred to bottles for rotary culture in a bioreactor. From Day 5, hEOs were cultured in OM supplemented with 1 μM SB431542 at hypoxic conditions (5% O2, 5% CO2 and without ROCKi). The hEOs were collected at different time points for further analysis. Medium containing human cord serum (HCS) (also known as ex-utero culture medium, EUCM) was used as described earlier^64. In brief, 25% human cord serum was mixed with 25% DMEM (Gibco 11880) (low glucose, no phenol red, no glutamine, no HEPES) and 50% rat serum. Glutamine and Penicillin-Streptomycin (50 units/ml penicillin) were added to the medium supplemented with 4 mg/ml glucose and HEPES (GIBCO 15630056, 11 mM) and 1 mM Sodium Pyruvate. Human cord serum was provided by the Cambridge Blood and Stem Cell Biobank, which is supported by the Cambridge NIHR Biomedical Research Centre, Wellcome Trust-MRC Stem Cell Institute, UK. Rat serum was heat-inactivated for 30 min at 56° C. and filtered through 0.22 μm PVDF filter, whereas human serum was heat inactivated at 55° C. for 45 minutes and sterilized through filtration by 0.22 μm filters. […]

niSTEMBRYOs [8] = test: niSTEMBRYO static and kinetic culture: growth and morphology; conditions: kinetic culture with SB
hEOs [9] = test: Kinetic rotary culture of hEOs: growth and morphology
Description: as §1, with “analysis. Medium containing human cord serum (HCS) (also known as ex-utero culture medium, EUCM) was used as described earlier^64. […]” for “analysis.”

With `Cc1c[nH]c(-c2cnc(NCCNc3ccc(C#N)cn3)nc2-c2ccc(Cl)cc2Cl)n1` [CH, CHIR99021] the “aggregates elongated along the longitudinal axis” value (hEOs [1]; 0.25 μM CH, after two days, 1620/1800, N=10 experiments) was “more than 90%”, the “self-organization of aggregates into 3D elongated structures” value (hEOs [1]; CH 0.25 μM, 0.5 μM and 1.0 μM) was “sufficient to promote self-organization into 3D elongated structures” and the periodic contractions (niSTEMBRYOs [2]; niSTEMBRYOs cultured with HCS or with CH alone) was “not evident”. The “elongation of hEOs and hPGCLC specification (NANOS3-tdTomato reporter)” value (hPGCLCs; CH 0.25 μM, from D2 until D8, without exogenous BMP2/4) was “both the elongation of hEOs and the specification of hPGCLCs”, the “detection of hPGCLCs” value (hPGCLCs; high concentration of CH (1.0 μM), D3 hEOs) was “No hPGCLCs were detected” and the “appearance of red hemogenic zones” value (niSTEMBRYOs [3]; aggregates cultured in the presence of CH or HCS alone) was “did not appear”. For the same molecule, the “elongation of the aggregates” value (hEOs [4]; four days in the presence of CH, by day 4, 1845/3100, N=4 experiments) was ~ 60%.
With `c1ccc2c(-c3cnn4cc(-c5ccc(N6CCNCC6)cc5)cnc34)ccnc2c1` [LDN193189] the “effect of BMP inhibition on specification of hPGCLCs” value (hPGCLCs; inhibitor present on D1, D2 or D3) was “affected the specification of hPGCLCs when present on D1 but not on D2 or D3”.
In the case of `NC(=O)c1ccc(-c2nc(-c3ccc4c(c3)OCO4)c(-c3ccccn3)[nH]2)cc1` [SB43, SB431542], the “hindgut (SOX17, SOX2 tubular structure)” value (niSTEMBRYOs [5]; SB from D1 (SB early)) is reported as “appearance of hindgut”, the “expression of mesodermal marker TBXT” value (niSTEMBRYOs [5]; SB from D1 (SB early), by D4) is reported as “downregulated” and the hindgut (niSTEMBRYOs [5]; SB from D4 (SB late)) is reported as “absent”. For the same molecule, the “hEOs containing large internal red zones” value (hEOs [6]; SB in rotary cultures, by day 15) was ~ 14%, the red inclusion phenotype (hEOs [6]; SB included in the 4D static culture) was “entirely lost” and the “niSTEMBRYOs with periodic and highly localised contractions” value (niSTEMBRYOs [2]; D8, kinetic culture with SB) was ~ 72%. For the same molecule, the “appearance of contracting cardiomyocytes” value (niSTEMBRYOs [2]; SB from D1 (SB early) vs SB from D4 (SB late)) was “not affected”, the “niSTEMBRYOs with periodic and highly localised contractions” value (niSTEMBRYOs [2]; after 7 days, kinetic culture with SB) was ~ 10% and the “hEOs with periodic and highly localised contractions” value (hEOs [7]; D7, kinetic culture with SB) was ~ 10%. The “hEOs with periodic and highly localised contractions” value (hEOs [7]; D8, kinetic culture with SB) was ~70%, the “decrease in the number of beating hEOs” value (hEOs [7]; SB in static and kinetic cultures vs SB only during kinetic cultures, D8, p<0.0001) was 40% and the “haematopoiesis in niSTEMBRYOs” value (niSTEMBRYOs [3]; SB43 from day 4 onwards (SB late)) was “promoted haematopoiesis”. The red hemogenic phenotype (niSTEMBRYOs [3]; SB from D1 (SB early)) was “no red hemogenic phenotype was observed”, the “niSTEMBRYOs developing visible red hemogenic zones” value (niSTEMBRYOs [3]; SB in rotary cultures, from D14 onwards, N=196/1170, 5 experiments) was ~ 16% and the aggregate size (niSTEMBRYOs [8]; after 14 days) was “quadrupling”. The aggregate size (niSTEMBRYOs [8]; after four days) was “doubling in size”, the hEO size (hEOs [9]; kinetic culture with 1 μM SB43, with or without 10% Matrigel, after four days) was “doubled in size” and the “hEO size relative to static culture on D4” value (hEOs [9]; kinetic culture with SB, after 22 days) was “quadrupled in size”. The “increase in the frequency of elongated hEOs” value (hEOs [4]; SB in the initial four-day static cultures, D4, p=0.0016) was 15%.
